# Assay results: US20170058314A1, “NOVEL METHODOLOGY FOR IDENTIFYING ANTI-PERSISTER ACTIVITY AND ANTIMICROBIAL SUSCEPTIBILITY FOR BORRELIA BURGDORFERI AND OTHER BACTERIA” (priority 2014, published 2017)
# Tested on: M. tuberculosis H37Ra WT
# Type: cell-based, Mycobacterium tuberculosis
smiles,measurement,value
"NC(=O)c1cnccn1 [PZA, pyrazinamide]",residual viability of H37Ra WT compared with PZA resistant mutants,obviously decreased
